Laboratory results as given in PMC10608315, “Organic Synthesis of New Secosteroids from Fucosterol, Its Intestinal Absorption by Caco-2 Cells, and Simulation of the Biological Activities of Vitamin D” (Marine Drugs, 2023).
Where two headings read alike, the source gives them in different places.

Columns and labels:
[1] = parameters: method as in PMID 9598513, PMID 10389917; conditions: potential cancer therapy; cited from earlier work
human breast cancer cell = tested on: human breast cancer cell; parameters: method as in PMID 10762752; conditions: compared with 1,25-di(OH)-vitamin D3; cited from earlier work
[2] = tested on: chemically induced cancers; conditions: cited from earlier work
[3] = parameters: method as in PMID 12628523; conditions: cited from earlier work
Caco-2 cells [4] = conditions: human, Caco-2, 24 h, 1 µM
Caco-2 cells [5] = experiment: Intestinal absorption of mixed micellar secosteroid by differentiated Caco-2 monolayers in Transwell plates (remaining, uptake, transport); conditions: summary of Caco-2 uptake and transport, 24 h
rickets = conditions: rats; cited from earlier work
Caco-2 = tested on: Caco-2; parameters: method as in PMID 9184144; conditions: cholesterol versus sitosterol; cited from earlier work

C=C1C(=CC=C2CCCC3(C)C2CCC3C(C)CCCC(C)(C)O)CC(O)CC1O (stereo not shown) [1,25-di(OH)-Vitamin D3]
Side effects in clinical trials [1]: side effects like hypercalcemia [75] and hypercalciuria

C=C1/C(=C\C=C2/CCC[C@]3(C)[C@@H]([C@H](C)CC[C@@H](CC)C(C)C)CC[C@@H]23)C[C@@H](O)C[C@@H]1O [1-OH-vitamin D5]
Inhibition of human breast cancer cell growth (human breast cancer cell): as effective as 1,25-di(OH)-vitamin D3
Effectiveness compared with 1,25-di(OH)-vitamin D3 [2]: less effective than 1,25-di(OH)-vitamin D3
Treatment of chemically induced cancers ([2]; mice and rats): effectively treated
Side effects like weight loss and disruptions to calcium levels [3]: markedly fewer side effects

C=C1CCC(O)CC1=CC=C1CCCC2(C)C1CCC2C(C)CCC(=CC)C(C)C [Compound 3, (5Z,7E,24E)-(3S)-9,10-seco-5,7,10(19),24(24^1)-stigmastatetraen-3-ol]
Concentration of micellar secosteroid remaining on the apical side (Caco-2 cells [4]): significantly higher concentrations than vitamin D3
Intestinal absorption (uptake and transport) ranking (Caco-2 cells [4]): compound 4 ≥ vitamin D3 ≥ compound 3

C=C(C)C(=CC)CCC(C)C1CCC2C(=CC=C3CC(O)CCC3=C)CCCC21C [Compound 4, (5Z,7E,24E)-(3S)-9,10-seco-5,7,10(19),24(24^1),25(27)-stigmastapentaen-3-ol]
Concentration of micellar secosteroid remaining on the apical side (Caco-2 cells [4]): significantly higher concentrations than vitamin D3
Intestinal absorption (uptake and transport) ranking (Caco-2 cells [4]): compound 4 ≥ vitamin D3 ≥ compound 3
Secosteroid transported from the monolayer into the basolateral medium (Caco-2 cells [4]): No significant deviation was observed between vitamin D3 and compound 4

C=C1CC[C@H](O)C/C1=C/C=C1\CCC[C@]2(C)[C@@H]([C@H](C)CCCC(C)C)CC[C@@H]12 [Vitamin D3, cholecalciferol]
Intestinal absorption (uptake and transport) ranking (Caco-2 cells [5]): compound 4 ≥ vitamin D3 ≥ compound 3

C=C1CCC(O)C/C1=C/C=C1\CCCC2(C)C1CCC2C(C)CCC(CC)C(C)C (stereo not shown) [Vitamin D5]
Anti-rickets activity (rickets): very low anti-rickets activity

CC(C)CCC[C@@H](C)[C@H]1CC[C@H]2[C@@H]3CC=C4C[C@@H](O)CC[C@]4(C)[C@H]3CC[C@]12C [cholesterol]
Uptake and transport by Caco-2 (Caco-2): higher for cholesterol than for sitosterol
